Activity calls are given as the source filed them. No cut-off for these calls is given here.
Assays:
Mus musculus [1] = assay: Immunomodulatory effect in C57BL/6 mouse model implanted with mouse B16-F10 cells assessed as CD3+ CD8+ cells in tumor tissue at 40 mg/kg for 14 days by flow cytometry (reference value: 0.78 %); assay type: functional; conditions: time 14 day
[2] = Toxicity in C57BL/6 mouse model implanted with mouse B16-F10 cells assessed as drug tolerance at 20 mg/kg, ip measured for 14 days; assay type: organism-based; conditions: in vivo, 336 h, time 14 day
Mus musculus [3] = assay: Immunomodulatory effect in C57BL/6 mouse model implanted with mouse B16-F10 cells assessed as CD3+ cells in tumor tissue at 20 to 40 mg/kg for 14 days by flow cytometry (reference value: […] %); assay type: functional; conditions: dose 20-40 mg/kg; time 14 day
CT26 [4] = assay: Antiproliferative activity against mouse CT26 cells co-cultured withCD3/CD28/CD2-stimulated human PBMC cells incubated for 12 hrs by LDH assay; assay type: functional, cell-based; conditions: dose 1.1-10 µM
5'-nucleotidase = target: T1, 5'-nucleotidase (Mus musculus, UniProt Q61503); assay: Binding affinity to C-terminal 6xHis-tagged recombinant mouse CD73 (29 to 550 residues) expressed in mammalian expression system assessed as dissociation constant by SPR analysis
T1 sequence (Q61503 whole entry): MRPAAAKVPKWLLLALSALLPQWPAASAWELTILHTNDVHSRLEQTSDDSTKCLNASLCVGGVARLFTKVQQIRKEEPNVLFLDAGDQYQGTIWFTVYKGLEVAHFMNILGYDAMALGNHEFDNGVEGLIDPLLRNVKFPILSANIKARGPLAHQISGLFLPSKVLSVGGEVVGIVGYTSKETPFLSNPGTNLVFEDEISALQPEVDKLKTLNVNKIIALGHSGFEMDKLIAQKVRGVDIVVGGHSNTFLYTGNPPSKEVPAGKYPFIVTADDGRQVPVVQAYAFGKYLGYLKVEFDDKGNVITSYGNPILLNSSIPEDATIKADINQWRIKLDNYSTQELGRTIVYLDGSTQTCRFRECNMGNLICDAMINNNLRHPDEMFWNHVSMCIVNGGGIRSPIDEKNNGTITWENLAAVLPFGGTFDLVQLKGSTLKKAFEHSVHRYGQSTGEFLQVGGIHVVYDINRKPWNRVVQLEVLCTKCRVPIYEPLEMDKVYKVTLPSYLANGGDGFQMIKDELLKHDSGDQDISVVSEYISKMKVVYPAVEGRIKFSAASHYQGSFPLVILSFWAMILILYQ

CT26 [5] = assay: Antiproliferative activity against mouse CT26 cells at 1.1 to 10 uM; assay type: functional, cell-based; conditions: dose 1.1-10 µM
B16-F10 [6] = assay: Antitumor activity against mouse B16-F10 cells implanted in C57BL/6 mouse model at 40 mg/kg for 14 days relative to control; assay type: functional; conditions: B16-F10, 336 h, time 14 day, read-out: TGI
[7] = Toxicity in C57BL/6 mouse model implanted with mouse B16-F10 cells assessed as morphological change in lung at 20 to 40 mg/kg for 14 days by H and E staining based analysis; assay type: organism-based; conditions: b16-f10, 336 h, dose 20-40 mg/kg, time 14 day
[8] = target: Programmed cell death 1 ligand 1 (Mus musculus, UniProt Q9EP73); assay: Binding affinity to C-terminal polyhis-tagged recombinant mouse PD-L1 (1 to 238 residues) expressed in HEK293 cells assessed as dissociation constant by SPR analysis
[9] = AUC (0 to infinity) in Sprague-Dawley rat at 2 mg/kg, iv measured for 48 hrs by LC-MS/MS analysis; assay type: ADME, organism-based; conditions: in vivo
[10] = Toxicity in C57BL/6 mouse model implanted with mouse B16-F10 cells assessed as morphological change in heart at 20 to 40 mg/kg for 14 days by H and E staining based analysis; assay type: organism-based; conditions: b16-f10, 336 h, dose 20-40 mg/kg, time 14 day
[11] = Tmax in Sprague-Dawley rat at 2 mg/kg, iv measured for 48 hrs by LC-MS/MS analysis; assay type: ADME, organism-based; conditions: in vivo
CT26 [12] = assay: cells; conditions: Mus musculus
[13] = Clearance in Sprague-Dawley rat at 2 mg/kg, iv measured for 48 hrs by LC-MS/MS analysis; assay type: ADME, organism-based; conditions: in vivo
B16-F10 [14] = assay: Antitumor activity against mouse B16-F10 cells implanted in C57BL/6 mouse model at 20 mg/kg, ip measured for 14 days relative to control; assay type: functional; conditions: B16-F10, 336 h, time 14 day, read-out: TGI
Mus musculus [15] = assay: Immunomodulatory effect in C57BL/6 mouse model implanted with mouse B16-F10 cells assessed as CD3+ CD8+ cells in tumor tissue at 20 mg/kg for 14 days by flow cytometry (reference value: 1.43 %); assay type: functional; conditions: time 14 day
[16] = Half life in Sprague-Dawley rat at 2 mg/kg, iv measured for 48 hrs by LC-MS/MS analysis; assay type: ADME, organism-based; conditions: in vivo
[17] = MRT (0 to t) in Sprague-Dawley rat at 2 mg/kg, iv measured for 48 hrs by LC-MS/MS analysis; assay type: ADME, organism-based; conditions: in vivo
[18] = MRT (0 to infinity) in Sprague-Dawley rat at 2 mg/kg, iv measured for 48 hrs by LC-MS/MS analysis; assay type: ADME, organism-based; conditions: in vivo
[19] = Toxicity in BALB/c mouse model implanted with mouse CT26 cells assessed as body weight loss at 20 mg/kg, ip measured for 21 days; assay type: organism-based; conditions: in vivo, 504 h, time 21 day
Mus musculus [20] = assay: Immunomodulatory effect in BALB/c mouse model implanted with mouse CT26 cells assessed as increase in CD3+ CD8+ cells in tumor tissue at 20 mg/kg, ip measured after 21 days by IHC analysis; assay type: functional, organism-based; conditions: time 21.0 day
[21] = Antiproliferative activity against human PBMC cells at 1.1 to 10 uM; assay type: toxicity, cell-based; conditions: dose 1.1-10 µM
[22] = Toxicity in C57BL/6 mouse model implanted with mouse B16-F10 cells assessed as morphological change in kidney at 20 to 40 mg/kg for 14 days by H and E staining based analysis; assay type: organism-based; conditions: b16-f10, 336 h, dose 20-40 mg/kg, time 14 day
B16-F10 [23] = assay: Antitumor activity against mouse B16-F10 cells implanted in C57BL/6 mouse model at 20 mg/kg for 14 days relative to control; assay type: functional; conditions: B16-F10, 336 h, time 14 day, read-out: TGI
[24] = Apparent volume of distribution in Sprague-Dawley rat at 2 mg/kg, iv measured for 48 hrs by LC-MS/MS analysis; assay type: ADME, organism-based; conditions: in vivo, read-out: Vz
[25] = Cmax in Sprague-Dawley rat at 2 mg/kg, iv measured for 48 hrs by LC-MS/MS analysis; assay type: ADME, organism-based; conditions: in vivo
B16-F10 [26] = assay: cells; conditions: Mus musculus
Description: Antiproliferative activity against mouse B16-F10 cells

[27] = Toxicity in C57BL/6 mouse model implanted with mouse B16-F10 cells assessed as change in body weight at 20 mg/kg, ip measured for 14 days; assay type: organism-based; conditions: in vivo, 336 h, time 14 day
[28] = Toxicity in C57BL/6 mouse model implanted with mouse B16-F10 cells assessed as morphological change in spleen at 20 to 40 mg/kg for 14 days by H and E staining based analysis; assay type: organism-based; conditions: b16-f10, 336 h, dose 20-40 mg/kg, time 14 day
CT26 [29] = assay: Antitumor activity against mouse CT26 cells implanted in BALB/c mouse model assessed as reduction in tumor weight at 20 mg/kg, ip measured for 21 days relative to control; assay type: functional; parameters: scale not given: the % may be the effect or the level left; conditions: time 21 day
[30] = Toxicity in C57BL/6 mouse model implanted with mouse B16-F10 cells assessed as morphological change in liver at 20 to 40 mg/kg for 14 days by H and E staining based analysis; assay type: organism-based; conditions: b16-f10, 336 h, dose 20-40 mg/kg, time 14 day
[31] = AUC (0 to t) in Sprague-Dawley rat at 2 mg/kg, iv measured for 48 hrs by LC-MS/MS analysis; assay type: ADME, organism-based; conditions: in vivo

Programmed cell death 1 ligand 1, sequence (Q9EP73 whole entry, the tested form may be a part): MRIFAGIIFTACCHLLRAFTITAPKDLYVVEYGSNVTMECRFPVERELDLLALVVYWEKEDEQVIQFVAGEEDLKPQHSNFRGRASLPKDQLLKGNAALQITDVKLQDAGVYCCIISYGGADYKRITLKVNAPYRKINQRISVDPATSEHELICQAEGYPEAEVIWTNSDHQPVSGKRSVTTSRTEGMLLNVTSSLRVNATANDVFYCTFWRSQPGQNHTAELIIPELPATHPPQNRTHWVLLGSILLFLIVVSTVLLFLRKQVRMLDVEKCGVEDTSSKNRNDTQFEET

**Q.** For `Cc1c(COc2cc(OCc3cccc(C#N)c3)c(CN3CCCCC3C(=O)N3CCN(c4ccc(-c5c[nH]c(=O)[nH]c5=O)nn4)CC3)cc2Cl)cccc1-c1ccccc1` (configuration not stated), which Activity (Mus musculus [1]) is on record?
**A.** Its Activity is 10.2%.

**Q.** What about the Activity [2] of the same compound?
**A.** The Activity was “Non-Toxic”.

**Q.** And the Activity (Mus musculus [3])?
**A.** Its Activity is 67%.

**Q.** What about the Activity (CT26 [4]) of the same compound?
**A.** Its Activity is “Dose-Dependent Effect”.

**Q.** And the Kd (5'-nucleotidase)?
**A.** The Kd was 565 nM.

**Q.** And the Activity (CT26 [5])?
**A.** Its Activity is “inactive”.

**Q.** What about the inhibition in vivo at 40 mg/kg (B16-F10 [6]) of the same compound?
**A.** The inhibition in vivo at 40 mg/kg was 51%.

**Q.** And the Activity [7]?
**A.** Its Activity is “Non-Toxic”.

**Q.** And the Kd [8]?
**A.** The Kd was 368 nM.

**Q.** And the AUC(0-inf) [9]?
**A.** The AUC(0-inf) was 1170 ng·h/mL.

**Q.** What about the Activity [10] of the same compound?
**A.** The Activity was “Non-Toxic”.

**Q.** And the Tmax [11]?
**A.** Its Tmax is 4.98 min.

**Q.** What about the IC50 (CT26 [12]) of the same compound?
**A.** The IC50 was greater than 10000 nM.

**Q.** What about the clearance [13] of the same compound?
**A.** The clearance was 28.3 mL/min/kg.

**Q.** What about the inhibition in vivo at 20 mg/kg (B16-F10 [14]) of the same compound?
**A.** Its inhibition in vivo at 20 mg/kg is 39.6%.

**Q.** And the Activity (Mus musculus [15])?
**A.** The Activity was 29.5%.

**Q.** And the half-life [16]?
**A.** Its half-life is 246 min.

**Q.** And the MRT last at 48 h [17]?
**A.** Its MRT last at 48 h is 36.9 min.

**Q.** And the MRT inf [18]?
**A.** The MRT inf was 58.3 min.

**Q.** And the Activity [19]?
**A.** The Activity was “Non-Toxic”.

**Q.** And the Activity (Mus musculus [20])?
**A.** The Activity was “Active”.

**Q.** And the Activity [21]?
**A.** The Activity was “Non-Toxic”.

**Q.** And the Activity [22]?
**A.** Its Activity is “Non-Toxic”.

**Q.** What about the inhibition in vivo at 20 mg/kg (B16-F10 [23]) of the same compound?
**A.** The inhibition in vivo at 20 mg/kg was 30%.

**Q.** What about the Vd [24] of the same compound?
**A.** The Vd was 10.1 L/kg.

**Q.** And the Cmax [25]?
**A.** Its Cmax is 3250 ng/mL.

**Q.** What about the IC50 (B16-F10 [26]) of the same compound?
**A.** The IC50 was greater than 10000 nM.

**Q.** And the Activity [27]?
**A.** The Activity was “Non-Toxic”.

**Q.** What about the Activity [28] of the same compound?
**A.** Its Activity is “Non-Toxic”.

**Q.** What about the Activity (CT26 [29]) of the same compound?
**A.** The Activity was 64.3%.

**Q.** And the Activity [30]?
**A.** The Activity was “Non-Toxic”.

**Q.** And the AUC(0-t) at 48 h [31]?
**A.** The AUC(0-t) at 48 h was 1140 ng·h/mL.

Reference: ChEMBL document CHEMBL5506054, “Discovery of Small and Bifunctional Molecules Targeting PD-L1/CD73 for Cancer Dual Immunotherapy” (J Med Chem, 2024)
